Results as given in the NIST ThermoML archive (doi:10.1021/je100529s).
± gives the expanded uncertainty stated by the source.

Assay: activity coefficient (dimensionless); of the first substance listed, at infinite dilution; xn = mol fraction of the nth substance listed
Conditions: Liquid, Gas Stripping Method, x1 = 0

| Compound | activity coefficient (299.99 K) | activity coefficient (309.99 K) | activity coefficient (319.99 K) | activity coefficient (329.99 K) | activity coefficient (289.97 K) | activity coefficient (299.98 K) | activity coefficient (309.98 K) | activity coefficient (340.02 K) | activity coefficient (289.98 K) | activity coefficient (319.98 K) | activity coefficient (340.01 K) |
| --- | --- | --- | --- | --- | --- | --- | --- | --- | --- | --- | --- |
| CCC [propane] + Cc1ccccc1O | 6.34 ± 0.38 | 6.04 ± 0.36 | 5.83 ± 0.35 | 5.58 ± 0.33 |  |  |  |  |  |  |  |
| CCCl [chloroethane] + Cc1cccc(O)c1 |  |  | 1.99 ± 0.12 | 1.93 ± 0.12 | 2.13 ± 0.13 | 2.1 ± 0.13 | 2.05 ± 0.12 |  |  |  |  |
| CC(C)C [2-methylpropane] + Cc1ccc(O)cc1 |  | 7.93 ± 0.48 | 7.62 ± 0.46 | 7.3 ± 0.44 |  |  |  | 7.03 ± 0.42 |  |  |  |
| CC(C)C [2-methylpropane] + Cc1cccc(O)c1 |  | 7.87 ± 0.47 | 7.54 ± 0.45 | 7.21 ± 0.43 |  | 8.11 ± 0.49 |  |  | 8.35 ± 0.5 |  |  |
| COC [dimethyl ether] + Cc1ccccc1O | 0.1 ± 0.01 |  |  | 0.18 ± 0.01 |  |  | 0.12 ± 0.01 |  |  | 0.14 ± 0.01 |  |
| C/C=C/C [(E)-2-butene] + Cc1ccc(O)cc1 |  | 4.48 ± 0.27 | 4.35 ± 0.26 | 4.25 ± 0.26 |  |  |  | 4.14 ± 0.25 |  |  |  |
| COC [dimethyl ether] + Cc1cccc(O)c1 |  |  | 0.18 ± 0.01 | 0.2 ± 0.01 | 0.11 ± 0.01 | 0.13 ± 0.01 | 0.15 ± 0.01 |  |  |  |  |
| C=CCC [1-butene] + Cc1ccccc1O | 4.29 ± 0.26 | 4.15 ± 0.25 | 4.03 ± 0.24 | 3.87 ± 0.23 |  |  |  |  |  |  |  |
| C/C=C/C [(E)-2-butene] + Cc1ccccc1O | 4.25 ± 0.26 | 4.13 ± 0.25 | 3.98 ± 0.24 | 3.82 ± 0.23 |  |  |  |  |  |  |  |
| C/C=C\C [(Z)-2-butene] + Cc1cccc(O)c1 |  | 4.09 ± 0.25 | 3.99 ± 0.24 | 3.88 ± 0.23 |  | 4.2 ± 0.25 |  |  | 4.29 ± 0.26 |  |  |
| C=C(C)C [2-methylpropene] + Cc1ccc(O)cc1 |  | 4.44 ± 0.27 | 4.34 ± 0.26 | 4.2 ± 0.25 |  |  |  | 4.07 ± 0.24 |  |  |  |
| CCCl [chloroethane] + Cc1ccccc1O | 1.83 ± 0.11 |  |  | 1.7 ± 0.1 |  |  | 1.77 ± 0.11 |  |  | 1.76 ± 0.11 |  |
| CC(C)C [2-methylpropane] + Cc1ccccc1O | 7.92 ± 0.48 | 7.57 ± 0.45 | 7.14 ± 0.43 | 6.73 ± 0.4 |  |  |  |  |  |  |  |
| CCCC [butane] + Cc1ccc(O)cc1 |  | 6.88 ± 0.41 | 6.62 ± 0.4 | 6.32 ± 0.38 |  |  |  | 6.09 ± 0.37 |  |  |  |
| C=C(C)C [2-methylpropene] + Cc1cccc(O)c1 |  | 4.42 ± 0.27 | 4.3 ± 0.26 | 4.16 ± 0.25 |  | 4.56 ± 0.27 |  |  | 4.66 ± 0.28 |  |  |
| C=CC=C [1,3-butadiene] + Cc1cccc(O)c1 |  | 3.22 ± 0.19 | 3.13 ± 0.19 | 3.05 ± 0.18 |  | 3.26 ± 0.2 |  |  | 3.32 ± 0.2 |  |  |
| C=C(C)C [2-methylpropene] + Cc1ccccc1O | 4.11 ± 0.25 | 3.98 ± 0.24 | 3.84 ± 0.23 | 3.7 ± 0.22 |  |  |  |  |  |  |  |
| CCC [propane] + Cc1ccc(O)cc1 |  | 6.29 ± 0.38 | 6.12 ± 0.37 | 5.93 ± 0.36 |  |  |  | 5.74 ± 0.34 |  |  |  |

| Compound | activity coefficient (299.99 K) | activity coefficient (309.99 K) | activity coefficient (319.99 K) | activity coefficient (329.99 K) | activity coefficient (289.97 K) | activity coefficient (299.98 K) | activity coefficient (309.98 K) | activity coefficient (340.02 K) | activity coefficient (289.98 K) | activity coefficient (319.98 K) | activity coefficient (340.01 K) |
| --- | --- | --- | --- | --- | --- | --- | --- | --- | --- | --- | --- |
| C=CC=C [1,3-butadiene] + Cc1ccc(O)cc1 |  | 3.26 ± 0.2 | 3.16 ± 0.19 | 3.07 ± 0.18 |  |  |  | 2.99 ± 0.18 |  |  |  |
| C/C=C\C [(Z)-2-butene] + Cc1ccc(O)cc1 |  | 4.12 ± 0.25 | 4.03 ± 0.24 | 3.91 ± 0.23 |  |  |  | 3.8 ± 0.23 |  |  |  |
| CC(F)F [1,1-difluoroethane] + Cc1cccc(O)c1 |  | 4.37 ± 0.26 | 4.16 ± 0.25 | 3.98 ± 0.24 |  | 4.59 ± 0.28 |  |  | 4.79 ± 0.29 |  |  |
| CCCC [butane] + Cc1ccccc1O | 6.92 ± 0.42 | 6.61 ± 0.4 | 6.26 ± 0.38 | 5.92 ± 0.36 |  |  |  |  |  |  |  |
| C=CC [propene] + Cc1ccccc1O | 3.81 ± 0.23 | 3.71 ± 0.22 | 3.6 ± 0.22 | 3.48 ± 0.21 |  |  |  |  |  |  |  |
| C=CC [propene] + Cc1ccc(O)cc1 |  | 4.07 ± 0.24 | 4.02 ± 0.24 | 3.92 ± 0.24 |  |  |  | 3.84 ± 0.23 |  |  |  |
| CCCC [butane] + Cc1cccc(O)c1 |  | 6.88 ± 0.41 | 6.6 ± 0.4 | 6.33 ± 0.38 |  | 7.06 ± 0.42 |  |  | 7.22 ± 0.43 |  |  |
| C=CCC [1-butene] + Cc1ccc(O)cc1 |  | 4.66 ± 0.28 | 4.55 ± 0.27 | 4.4 ± 0.26 |  |  |  | 4.26 ± 0.26 |  |  |  |
| C=CC [propene] + Cc1cccc(O)c1 |  | 4.05 ± 0.24 | 3.97 ± 0.24 | 3.88 ± 0.23 |  | 4.13 ± 0.25 |  |  | 4.1 ± 0.25 |  |  |
| C=CCC [1-butene] + Cc1cccc(O)c1 |  | 4.62 ± 0.28 | 4.48 ± 0.27 | 4.36 ± 0.26 |  | 4.75 ± 0.29 |  |  | 4.86 ± 0.29 |  |  |
| CCCl [chloroethane] + Cc1ccc(O)cc1 |  |  |  | 1.98 ± 0.12 |  |  | 2.09 ± 0.13 |  |  | 2.06 ± 0.12 | 1.93 ± 0.12 |
| C/C=C\C [(Z)-2-butene] + Cc1ccccc1O | 3.79 ± 0.23 | 3.69 ± 0.22 | 3.57 ± 0.21 | 3.44 ± 0.21 |  |  |  |  |  |  |  |
| CCC [propane] + Cc1cccc(O)c1 |  | 6.24 ± 0.37 | 6.06 ± 0.36 | 5.88 ± 0.35 |  | 6.36 ± 0.38 |  |  | 6.31 ± 0.38 |  |  |
| CC(F)F [1,1-difluoroethane] + Cc1ccccc1O | 4.02 ± 0.24 | 3.84 ± 0.23 | 3.67 ± 0.22 | 3.49 ± 0.21 |  |  |  |  |  |  |  |
| COC [dimethyl ether] + Cc1ccc(O)cc1 |  |  |  | 0.21 ± 0.01 |  |  | 0.16 ± 0.01 |  |  | 0.19 ± 0.01 | 0.24 ± 0.02 |
| C/C=C/C [(E)-2-butene] + Cc1cccc(O)c1 |  | 4.49 ± 0.27 | 4.35 ± 0.26 | 4.23 ± 0.25 |  | 4.57 ± 0.27 |  |  | 4.68 ± 0.28 |  |  |
| C=CC=C [1,3-butadiene] + Cc1ccccc1O | 2.87 ± 0.17 | 2.81 ± 0.17 | 2.72 ± 0.16 | 2.63 ± 0.16 |  |  |  |  |  |  |  |
| CC(F)F [1,1-difluoroethane] + Cc1ccc(O)cc1 |  | 4.46 ± 0.27 | 4.26 ± 0.26 | 4.07 ± 0.24 |  |  |  | 3.88 ± 0.23 |  |  |  |
